Consider 32 molecules from patent publication US20040110763A1, “Pyrazolopyridine compound and pharmaceutical use thereof” (priority 2000, published 2004).

The structures appear in SMILES notation.

`CC(C)n1nc(-c2c(-c3ccccc3)nn3ccc(C(=O)N4CCCCC4)cc23)ccc1=O` [Example 89, 5-(1-Piperidinylcarbonyl)-3-(3-oxo-2-isopropyl-2,3-dihydropyridazin-6-yl)-2-phenylpyrazolo[1,5-a]pyridine] displayed a melting point of 185 to 186 °C. Under `CC(C)n1nc(-c2c(-c3ccccc3)nn3ccc(C(=O)NCCOc4ccccc4)cc23)ccc1=O` [Example 92, N-(2-Phenoxyethyl)-3-(3-oxo-2-isopropyl-2,3-dihydropyridazin-6-yl)-2-phenylpyrazolo[1,5-a]pyridine-5-carboxamide] stands 156 to 157 °C; under `CC(C)NC(=O)c1ccn2nc(-c3ccccc3)c(-c3ccc(=O)n(C(C)C)n3)c2c1` [Example 95, N-Isopropyl-3-(3-oxo-2-isopropyl-2,3-dihydropyridazin-6-yl)-2-phenylpyrazolo[1,5-a]pyridine-5-carboxamide], 230 to 232 °C. Molecule `CC(C)n1nc(-c2c(-c3ccccc3)nn3ccc(N4CCOCC4)cc23)ccc1=O` [Example 98, 5-(4-Morpholinyl)-3-(3-oxo-2-isopropyl-2,3-dihydropyridazin-6-yl)-2-phenylpyrazolo[1,5-a]pyridine] yielded a melting point of 182 to 187 °C. On to `CC(C)n1nc(-c2c(-c3ccccc3)nn3ccc(N4CCN(c5ccccc5)CC4)cc23)ccc1=O` [Example 99, 5-(4-Phenyl-1-piperazinyl)-3-(3-oxo-2-isopropyl-2,3-dihydropyridazin-6-yl)-2-phenylpyrazolo[1,5-a]pyridine], for which the melting point was greater than 240 °C. Under `CC(C)n1nc(-c2c(-c3ccccc3)nn3ccc(N4C[C@@H](C)O[C@@H](C)C4)cc23)ccc1=O` [Example 100, 5-(cis-2,6-Dimethyl-4-morpholinyl)-3-(3-oxo-2-isopropyl-2,3-dihydropyridazin-6-yl)-2-phenylpyrazolo[1,5-a]-pyridine] stands 176 to 177 °C; under `CC(C)n1nc(-c2c(-c3ccccc3)nn3ccc(N4CCC(O)CC4)cc23)ccc1=O` [Example 101, 5-(4-Hydroxy-1-piperidinyl)-3-(3-oxo-2-isopropyl-2,3-dihydropyridazin-6-yl)-2-phenylpyrazolo[1,5-a]pyridine], 213 to 215 °C; under `CC(C)n1nc(-c2c(-c3ccccc3)nn3ccc(N4CCN(c5ccccn5)CC4)cc23)ccc1=O` [Example 102, 5-[4-(2-Pyridinyl)-1-piperazinyl]-3-(3-oxo-2-isopropyl-2,3-dihydropyridazin-6-yl)-2-phenylpyrazolo[1,5-a]pyridine], 221 to 222 °C. Take `CC(C)n1nc(-c2c(-c3ccccc3)nn3ccc(N4CCN(C(=O)OC(C)(C)C)CC4)cc23)ccc1=O` [Example 104, tert-Butyl 4-[3-(3-oxo-2-isopropyl-2,3-dihydropyridazin-6-yl)-2-phenylpyrazolo[1,5-a]pyridin-5-yl]-1-piperazinecarboxylate]: the melting point was in the range of 163 to 164 °C. In the case of `CC(C)n1nc(-c2c(-c3ccccc3)nn3ccc(N4CCN(Cc5ccccc5)CC4)cc23)ccc1=O` [Example 105, 5-(4-Benzyl-1-piperazinyl)-3-(3-oxo-2-isopropyl-2,3-dihydropyridazin-6-yl)-2-phenylpyrazolo[1,5-a]pyridine] it was 136 to 138 °C; in that of `COC1CCN(c2ccn3nc(-c4ccccc4)c(-c4ccc(=O)n(C(C)C)n4)c3c2)CC1` [Example 106, 5-(4-methoxy-1-piperidinyl)-3-(3-oxo-2-isopropyl-2,3-dihydropyridazin-6-yl)-2-phenylpyrazolo[1,5-a]pyridine], 177 to 178 °C; in that of `CC(C)n1nc(-c2c(-c3ccccc3)nn3ccc(N4CCNCC4)cc23)ccc1=O` [Example 107, 5-(1-piperazinyl)-3-(3-oxo-2-isopropyl-2,3-dihydropyridazin-6-yl)-2-phenylpyrazolo[1,5-a]pyridine], 203 to 204 °C. In the case of `COC(=O)N1CCN(c2ccn3nc(-c4ccccc4)c(-c4ccc(=O)n(C(C)C)n4)c3c2)CC1` [Example 108, methyl 4-[3-(3-oxo-2-isopropyl-2,3-dihydropyridazin-6-yl)-2-phenylpyrazolo[1,5-a]pyridin-5-yl]-1-piperazinecarboxylate] it was 206 to 207 °C; in that of `CC(C)n1nc(-c2c(-c3ccccc3)nn3ccc(N4CCN(C(=O)N(C)C)CC4)cc23)ccc1=O` [Example 109, 4-[3-(3-oxo-2-isopropyl-2,3-dihydropyridazin-6-yl)-2-phenylpyrazolo[1,5-a]pyridin-5-yl]-N,N-dimethyl-1-piperazinecarboxamide], 160 to 161 °C. Under `CC(C)n1nc(-c2c(-c3ccccc3)nn3ccc(N4CCN(S(C)(=O)=O)CC4)cc23)ccc1=O` [Example 110, 5-[4-(Methylsulfonyl)-1-piperazinyl]-3-(3-oxo-2-isopropyl-2,3-dihydropyridazin-6-yl)-2-phenylpyrazolo[1,5-a]pyridine] stands 219 to 220 °C.

`CC(C)n1nc(-c2c(-c3ccccc3)nn3ccc(N4CCN(S(=O)(=O)c5ccccc5)CC4)cc23)ccc1=O` [Example 111, 5-[4-(Phenylsulfonyl)-1-piperazinyl]-3-(3-oxo-2-isopropyl-2,3-dihydropyridazin-6-yl)-2-phenylpyrazolo[1,5-a]pyridine]: the melting point lay within 219 to 220 °C. In the case of `CC(C)n1nc(-c2c(-c3ccccc3)nn3ccc(N4CCN(C(=O)c5ccccc5)CC4)cc23)ccc1=O` [Example 112, 5-(4-Benzoyl-1-piperazinyl)-3-(3-oxo-2-isopropyl-2,3-dihydropyridazin-6-yl)-2-phenylpyrazolo[1,5-a]pyridine] it was 124 to 126 °C.

Consider `CC(=O)N1CCN(c2ccn3nc(-c4ccccc4)c(-c4ccc(=O)n(C(C)C)n4)c3c2)CC1` [Example 113, 5-(4-Acetyl-1-piperazinyl)-3-(3-oxo-2-isopropyl-2,3-dihydropyridazin-6-yl)-2-phenylpyrazolo[1,5-a]pyridine], for which the melting point lay within 148 to 149 °C. Under `CC(C)n1nc(-c2c(-c3ccccc3)nn3ccc(N4CCN(C(=O)CN(C)C)CC4)cc23)ccc1=O` [Example 114, 5-{4-[(dimethylamino)acetyl]-1-piperazinyl}-3-(3-oxo-2-isopropyl-2,3-dihydropyridazin-6-yl)-2-phenylpyrazolo[1,5-a]pyridine] stands 129 to 130 °C; under `COc1ccn2nc(-c3ccccc3)c(-c3ccc(=O)n(C)n3)c2c1` [Example 115, 5-Methoxy-3-(3-oxo-2-methyl-2,3-dihydropyridazin-6-yl)-2-phenylpyrazolo[1,5-a]pyridine], 183 to 184 °C; under `CCn1nc(-c2c(-c3ccccc3)nn3ccc(OC)cc23)ccc1=O` [Example 116, 5-Methoxy-3-(3-oxo-2-ethyl-2,3-dihydropyridazin-6-yl)-2-phenylpyrazolo[1,5-a]pyridine], 148 to 149 °C. In the case of `CCCn1nc(-c2c(-c3ccccc3)nn3ccc(OC)cc23)ccc1=O` [Example 117, 5-Methoxy-3-(3-oxo-2-propyl-2,3-dihydropyridazin-6-yl)-2-phenylpyrazolo[1,5-a]pyridine] it was 174 °C; in that of `COc1ccn2nc(-c3ccccc3)c(-c3ccc(=O)n(C4CCOC4)n3)c2c1` (centres unmarked) [Example 118, 5-Methoxy-3-[3-oxo-2-(tetrahydrofuran-3-yl)-2,3-dihydropyridazin-6-yl]-2-phenylpyrazolo[1,5-a]pyridine], 207 to 208 °C. Under `COc1ccn2nc(-c3ccccc3)c(-c3ccc(=O)n([C@@H]4CCOC4)n3)c2c1` [Example 119, 5-Methoxy-3-[3-oxo-2-((3R)-tetrahydrofuran-3-yl)-2,3-dihydropyridazin-6-yl]-2-phenylpyrazolo[1,5-a]pyridine] stands 194 to 195 °C; under `COc1ccn2nc(-c3ccccc3)c(-c3ccc(=O)n([C@H]4CCOC4)n3)c2c1` [Example 120, 5-Methoxy-3-[3-oxo-2-((3S)-tetrahydrofuran-3-yl)-2,3-dihydropyridazin-6-yl]-2-phenylpyrazolo[1,5-a]pyridine], 194 to 195 °C; under `COCC(C)n1nc(-c2c(-c3ccccc3)nn3ccc(OC)cc23)ccc1=O` (centres unmarked) [Example 121, 5-Methoxy-3-[3-oxo-2-(1-methoxy-2-propyl)-2,3-dihydropyridazin-6-yl]-2-phenylpyrazolo[1,5-a]pyridine], 138 to 139 °C. `COc1ccn2nc(-c3ccccc3)c(-c3ccc(=O)n(C4CCN(C)CC4)n3)c2c1` [Example 122, 5-methoxy-3-[3-oxo-2-(1-methylpiperidin-4-yl)-2,3-dihydropyridazin-6-yl]-2-phenylpyrazolo[1,5-a]pyridine] displayed a melting point of 154 to 155 °C. In the case of `COc1ccn2nc(-c3ccccc3)c(-c3ccc(=O)n(C4CCCN(C)C4)n3)c2c1` (centres unmarked) [Example 123, 5-Methoxy-3-[3-oxo-2-(1-methylpiperidin-3-yl)-2,3-dihydropyridazin-6-yl]-2-phenylpyrazolo[1,5-a]pyridine] it was 179 to 180 °C; in that of `COc1ccn2nc(-c3ccccc3)c(-c3ccc(=O)n(C4CCOCC4)n3)c2c1` [Example 124, 5-Methoxy-3-[3-oxo-2-(tetrahydropyran-4-yl)-2,3-dihydropyridazin-6-yl]-2-phenylpyrazolo[1,5-a]pyridine], 224 to 225 °C. Under `COc1ccn2nc(-c3ccccc3F)c(-c3ccc(=O)n(C)n3)c2c1` [Example 126, 5-Methoxy-3-(3-oxo-2-methyl-2,3-dihydropyridazin-6-yl)-2-(2-fluorophenyl)pyrazolo[1,5-a]pyridine] stands 220.5 to 221.5 °C; under `COc1ccn2nc(-c3ccccc3F)c(-c3ccc(=O)n(C(C)C)n3)c2c1` [Example 127, 5-Methoxy-3-(3-oxo-2-isopropyl-2,3-dihydropyridazin-6-yl)-2-(2-fluorophenyl)pyrazolo[1,5-a]pyridine], 174 to 175 °C. In the case of `COc1ccn2nc(-c3ccc(F)cc3)c(-c3ccc(=O)n(C(C)C)n3)c2c1` [Example 129, 5-Methoxy-3-(3-oxo-2-isopropyl-2,3-dihydropyridazin-6-yl)-2-(4-fluorophenyl)pyrazolo[1,5-a]pyridine] it was 176 to 177 °C.
